In patent US5234934A, “Aminopropanol derivatives, process for their preparation and pharmaceutical compositions comprising the same” (priority 1989, dated 1993):
Like-named read-outs stand apart in the source and are kept apart here.

Experiments:
gastric acid secretion = gastric acid secretion test (Shay); format: in vivo, rat; details: Rattus norvegicus, read-out: Inhibition of free acid, %
Experimental: The test was carried out according to Shay's operational method. […] On the day of the test the pylorus of the animals was bound under ether narcosis. The test compounds were administered orally 3 hours before the operation. The animals of the control group were administered with the carrier only. 4 hours after the operation the stomach was removed, the content thereof was centrifuged and the amount of free acid was determined by titration with 0.1N sodium hydroxide.

[1] = acute toxicity test in mice (Litchfield and Wilcoxon); format: in vivo, mouse; details: mouse, in vivo, po., 14 days observation
Experimental: The test for acute toxicity was carried out by using 10 white mice (CFLP strain) (both male and female), weighing 18 to 22 g in each dose group. The compounds of the invention were administered orally in a dose of 20 ml/kg.
The animals were kept in a plastic box on wood chips in a room of room temperature. They could consume tap water and standard mouse feed ad libitum. The toxicity data were determined by the method of Litchfield and Wilcoxon (Litchfield, J. T., Wilcoxon, F. W.: J. Pharmacol. Exp. Ther. 96, 99/1949/).

[2] = tested on: peristalty of stomach and intestines; assay: effect exerted on the peristalty of stomach and intestines (Stickney et al., carbon suspension); format: in vivo, mouse; details: for ED50: Mus musculus, read-out: ED50 (antiperistaltic); for TI (therapeutic index): antiperistaltic
Experimental: The antiperistaltic effect of the compounds was examined by the method of Stickney et al. on white mice of both sexes, weighing 20 to 25 g. The compounds to be tested were administered per os 60 minutes before the addition of carbon suspension to groups containing 10 mice each. The animals of the control groups were treated at the same time and in the same manner with the carrier only. The mice were killed 10 minutes after the addition of the carbon suspension, and the whole length of the intestines as well as the length of the intestines filled with carbon suspension were measured.

[3] = tested on: aconitine-induced ECG alterations; assay: animal or person; format: in vivo, rat; details: Rattus norvegicus, iv, read-out: Effect % (antiarrhythmic)
Experimental: The test was carried out by using the modified method of Marmo et al. on rats weighing 160 to 200 g. The animals were narcotised by ethyl uretane (1.2 g/kg ip.). Aconitin was administered intravenously in a dose of 75 /ug/kg in the form of a bolus injection. The ECG alterations were monitored in standard II lead by 5 minutes after the administration of aconitine. The observed alterations were classified into classes 0 to 5. The compounds of the invention were administered 2 minutes or 60 minutes before the parenteral or oral administration of aconitine, respectively. […]
class 1: sometimes an extrasystole occurs class 2: each second one is an extrasystole class 3: extrasystoles in groups class 4: each one is an extrasystole class 5: fibrillation, death
(Marmo, E., DiGiacomo, S., Imperatore, A.: Arzeimittel-Forschung 20, 12/1970/)

hexobarbital narcosis = assay: narcosis potentiating effect (hexobarbital sleeping time); details: for ED50: Mus musculus, po, read-out: ED50 (narcosis potentiation); for TI (therapeutic index): narcosis potentiation, mice, po.
Experimental: The narcosis potentiating effect of the compounds of the invention were examined on white mice, with 6 animals in each group. The mice were administered orally with the compounds of the invention, then both the control and the test groups were intravenously added 40 mg/kg of hexobarbital in order to make the mice sleep (Kaergard et al.).

nervus ischiadicus = assay: local analgesic effect (Truant d'Amato's method); format: in vivo; details: for EC50 %: 0.2 ml injected around nervus ischiadicus; for Duration of effect: in a conc. of 0.5%
Experimental: The tests were carried out according to Truant d'Amato's method. 0.2 ml of test material was injected around the nervus ischiadicus in the middle of femur with a needle of 1 cm length. The criterion of analgesic effect was the lack of the motoric control of foot muscles.
The duration of effect was registered and the 50 percentile effective concentration (EC50) was calculated on the basis of the dose-effect curve. Lidocain was used as comparative material. (Truant, A. P., D'Amato, D.: Acta Chir Scand. 116, 351/1958/)

`CN1CCN(CC(O)CO/N=C2\CCCC\C2=C/c2ccccc2)CC1` (racemic) [Example 4, R,S-2-(E)-Phenylmethylene-1-(E)-[3-(4-methyl-1-piperazinyl)-2'-hydroxy-propoxyimino]-cyclohexane] gave an inhibition in vivo at 200 mg/kg (gastric acid secretion; dose 200 mg/kg po., rats) of 77% and an LD50 at 336 h [1] of 1800 mg/kg.
In the case of `OC(CO/N=C1\CCCC\C1=C/c1ccccc1)CN1CCN(c2ccccc2)CC1` (racemic) [Example 5, R,S-2-(E)-Phenylmethylene-1-(E)-[3-(4-phenyl-1-piperazinyl)-2-hydroxy-propoxyimino]-cyclohexane], the ED50 ([2]; po., mice) was 70 mg/kg, the “TI (therapeutic index)” value ([2]; po., mice) was 14 and the LD50 at 336 h [1] was > 1000 mg/kg.
With `OC(CO/N=C1\CCCC\C1=C/c1ccccc1)CN1CCN(Cc2ccccc2)CC1` (racemic) [Example 6, R,S-2-(E)-Phenylmethylene-1-(E)-[3-(4-phenylmethyl-1-piperazinyl)-2-hydroxy-propoxyimino]-cyclohexane] the ED50 ([2]; po., mice) was 140 mg/kg, the “TI (therapeutic index)” value ([2]; po., mice) was 7 and the LD50 at 336 h [1] was > 1000 mg/kg.
For `OC(CO/N=C1\CCCC\C1=C/c1ccccc1)CN1CCN(c2ccc(Cl)cc2)CC1` (racemic) [Example 12, R,S-2-(E)-Phenylmethylene-1-(E)-{[4-(4-chlorophenyl)-1-piperazinyl]-2-hydroxy-propoxyimino}-cyclohexane], the ED50 ([2]; po., mice) was ~200 mg/kg, the “TI (therapeutic index)” value ([2]; po., mice) was “about 5” and the LD50 at 336 h [1] was 1000 mg/kg.
For `OCCN1CCN(CC(O)CO/N=C2\CCCC\C2=C/c2ccccc2)CC1` (racemic) [Example 13], the inhibition in vivo at 200 mg/kg (gastric acid secretion; dose 200 mg/kg po., rats) was 74% and the LD50 at 336 h [1] was > 1000 mg/kg.
In the case of `OC(CO/N=C1\CCCCC\C1=C/c1ccccc1)CN1CCOCC1` (racemic) [Example 15, R,S-2-(E)-Phenylmethylene-1-(E)-(3-morpholino-2-hydroxypropoxyimino)-cycloheptane], the ED50 ([2]; po., mice) was 140 mg/kg, the “TI (therapeutic index)” value ([2]; po., mice) was 7 and the LD50 at 336 h [1] was > 1000 mg/kg.
For `OC(CO/N=C1\CCCCCC\C1=C/c1ccccc1)CN1CCOCC1` (racemic) [Example 18, R,S-2-(E)-Phenylmethylene-1-(E)-(3-morpholino-2-hydroxy-propoxyimino)-cyclooctane], the inhibition in vivo at 200 mg/kg (gastric acid secretion; dose 200 mg/kg po., rats) was 68%, the LD50 at 336 h [1] was > 1000 mg/kg and the change in vivo at 4 mg/kg [3] was -50%. For the same compound, the ED50 (hexobarbital narcosis) was 25 mg/kg and the “TI (therapeutic index)” value (hexobarbital narcosis) was > 40.
For `CN1CCN(CC(O)CO/N=C2\CCCCCC\C2=C/c2ccccc2)CC1` (racemic) [Example 20, R,S-2-(E)-Phenylmethylene-1-(E)-[3-(4-methyl-1-piperazinyl)-2-hydroxy-propoxyimino]-cyclooctane], the ED50 ([2]; po., mice) was ~100 mg/kg, the “TI (therapeutic index)” value ([2]; po., mice) was “about 10” and the LD50 at 336 h [1] was > 1000 mg/kg. For the same compound, the ED50 (hexobarbital narcosis) was 21.5 mg/kg and the “TI (therapeutic index)” value (hexobarbital narcosis) was > 46.5.
For `CC(C)N(CC(O)CO/N=C1\CCC\C1=C/c1ccccc1)C(C)C` (racemic) [Example 21, R,S-2-(E)-Phenylmethylene-{3-[bis-(1-methylethyl)-amino]-2-hydroxy-propoxyimino}-cyclopentane], the EC50 % (nervus ischiadicus) was 0.24%, the Duration of effect (nervus ischiadicus) was 89 min and the LD50 at 336 h [1] was 700 mg/kg. For the same compound, the change in vivo at 4 mg/kg [3] was -46%.
In the case of `CCCCNCC(O)CO/N=C1\CCCC\C1=C/c1ccc(Cl)cc1` (racemic) [Example 29, R,S-2-(E)-(4-Chlorophenyl-methylene)-1-(E)-(3-butylamino-2-hydroxy-propoxyimino)-cyclohexane], the inhibition in vivo at 260 mg/kg (gastric acid secretion; dose 260 mg/kg po., rats) was 87%, the LD50 at 336 h [1] was 1300 mg/kg and the ED50 (hexobarbital narcosis) was 30 mg/kg. The “TI (therapeutic index)” value (hexobarbital narcosis) was 43.
With `CC(C)CNCC(O)CO/N=C1\CCCC\C1=C/c1ccc(Cl)cc1` (racemic) [Example 30, R,S-2-(E)-(4-Chlorophenyl-methylene)-1-(E)-[3-(2-methylpropylamino)-2-hydroxy-propoxyimino]-cyclohexane] the ED50 ([2]; po., mice) was 130 mg/kg, the “TI (therapeutic index)” value ([2]; po., mice) was 8 and the LD50 at 336 h [1] was 1100 mg/kg.
In the case of `C#CC(C)(C)NCC(O)CO/N=C1\CCCC\C1=C/c1ccc(Cl)cc1` (racemic) [Example 32, R,S-2-(E)-(4-Chlorophenyl-methylene)-1-(E)-[3-(1,1-dimethylpropin-2-yl-amino)-2-hydroxy-propoxyimino]-cyclohexane], the inhibition in vivo at 400 mg/kg (gastric acid secretion; dose 400 mg/kg po., rats) was 62%, the LD50 at 336 h [1] was > 2000 mg/kg and the ED50 (hexobarbital narcosis) was 50 mg/kg. For the same compound, the “TI (therapeutic index)” value (hexobarbital narcosis) was > 40.
In the case of `CCCCNCC(O)CO/N=C1\CCCC\C1=C/c1ccc(Cl)c(Cl)c1` (racemic) [Example 33, R,S-2-(E)-(3,4-Dichlorophenyl-methyl)-1-(E)-(3-butylamino-2-hydroxy-propoxyimino)-cyclohexane], the inhibition in vivo at 200 mg/kg (gastric acid secretion; dose 200 mg/kg po., rats) was 100% and the LD50 at 336 h [1] was > 1000 mg/kg.
In the case of `COc1ccccc1/C=C1\CCCC\C1=N/OCC(O)CN1CCN(c2ccccc2OC)CC1` (racemic) [Example 38, R,S-2-(E)-(2-Methoxyphenyl-methylene)-1-(E)-{[4-(2-methoxyphenyl)-1-piperazinyl]-2-hydroxy-propoxyimino}-cyclohexane], the ED50 ([2]; po., mice) was 23 mg/kg, the “TI (therapeutic index)” value ([2]; po., mice) was 44 and the LD50 at 336 h [1] was > 1000 mg/kg. For the same compound, the ED50 (hexobarbital narcosis) was 61 mg/kg and the “TI (therapeutic index)” value (hexobarbital narcosis) was 16.
For `COc1ccc(/C=C2\CCCC\C2=N/OCC(O)CNC2CC2)cc1` (racemic) [Example 40, R,S-2-(E)-(4-Methoxyphenyl-methylene)-1-(E)-(3-cyclopropylamino-2-hydroxy-propoxyimino)-cyclohexane], the inhibition in vivo at 160 mg/kg (gastric acid secretion; dose 160 mg/kg po., rats) was 57%, the EC50 % (nervus ischiadicus) was 0.19% and the Duration of effect (nervus ischiadicus) was 68 min. For the same compound, the LD50 at 336 h [1] was 800 mg/kg.
For `COc1ccc(/C=C2\CCCC\C2=N/OCC(O)CNCCCN(C)C)cc1` (racemic) [Example 41, R,S-2-(E)-(4-Methoxyphenyl-methylene)-1-(E)-[3-(3-dimethylamino-1-propylamino)-2-hydroxy-propoxyimino]-cyclohexane], the inhibition in vivo at 200 mg/kg (gastric acid secretion; dose 200 mg/kg po., rats) was 67% and the LD50 at 336 h [1] was > 1000 mg/kg.
In the case of `CN(CC(O)CO/N=C1\CCCC\C1=C/c1ccc(Cl)cc1)C1CCCCC1` (racemic) [Example 45, R,S-2-(E)-(4-Chlorophenyl-methylene)-1-(E)-[3'-(N-methyl-N-cyclohexylamino)-2-hydroxy-propoxyimino]-cyclohexane], the inhibition in vivo at 200 mg/kg (gastric acid secretion; dose 200 mg/kg po., rats) was 100% and the LD50 at 336 h [1] was > 1000 mg/kg.
In the case of `CC(C)NCC(O)CO/N=C1\CCCCCC\C1=C/c1ccccc1` (racemic) [Example 48, R,S-2-(E)-Phenylmethylene-1-(E)-[3-(1-methylethyl-amino)-2-hydroxypropxyimino]-cyclooctane], the inhibition in vivo at 100 mg/kg (gastric acid secretion; dose 100 mg/kg po., rats) was 75%, the EC50 % (nervus ischiadicus) was 0.31% and the Duration of effect (nervus ischiadicus) was 122 min. For the same compound, the LD50 at 336 h [1] was > 1000 mg/kg and the change in vivo at 4 mg/kg [3] was -43.5%.
Work on `CN/C(=N/CCSCc1nc[nH]c1C)NC#N` [Cimetidine, reference compound] yielded an inhibition in vivo at 100 mg/kg (gastric acid secretion; po) of 66% and an inhibition in vivo at 200 mg/kg (gastric acid secretion; po) of 91%.
Work on `CCN(CC)CC(=O)Nc1c(C)cccc1C` [Lidocain, reference compound] yielded an EC50 % (nervus ischiadicus) of 0.19% and a Duration of effect (nervus ischiadicus) of 34 min.
For `COc1ccc(Cc2nccc3cc(OC)c(OC)cc23)cc1OC` [Papaverine, reference compound], the “inhibition (antiperistaltic)” value ([2]; 280 mg/kg po., mice) was 36% and the ED50 ([2]; po) was > 280 mg/kg.
In the case of `COc1cc(C(=S)N2CCOCC2)cc(OC)c1OC` [Trithiozine, reference compound], the inhibition in vivo at 100 mg/kg (gastric acid secretion; po) was 30% and the inhibition in vivo at 400 mg/kg (gastric acid secretion; po) was 63%.
